Assay results: ChEMBL document CHEMBL1201862, “PubChem BioAssay data set” (2004)
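Five concentrations, 48 hours, 96-well plates. GI50 is the concentration that inhibits growth by half.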 Activity calls are given as the source filed them. No stated cut-off is given here; in the data, active = GI50 up to about 1.1 µM and inactive = higher.

Experiments:
Test in all cases: NCI-60 cell line screen, 48 h
NCI-H226 = test system: NCI-H226
UACC-257 = test system: UACC-257
MDA-MB-231 = test system: MDA-MB-231
SF-539 = test system: SF-539
SW-620 = test system: SW-620
EKVX = test system: EKVX
HOP-62 = test system: HOP-62
HT-29 = test system: HT-29
HCC 2998 = test system: HCC 2998
K562 = test system: K562
OVCAR-3 = test system: OVCAR-3
RPMI-8226 = test system: RPMI-8226
UO-31 = test system: UO-31
DU-145 = test system: DU-145
MDA-N = test system: MDA-N
HCT-116 = test system: HCT-116
SNB-75 = test system: SNB-75
NCI-H460 = test system: NCI-H460
CCRF-CEM = test system: CCRF-CEM
SF-268 = test system: SF-268
OVCAR-5 = test system: OVCAR-5
CAKI-1 = test system: CAKI-1
Hs-578T = test system: Hs-578T
NCI/ADR-RES = test system: NCI/ADR-RES
OVCAR-4 = test system: OVCAR-4
PC-3 = test system: PC-3
786-0 = test system: 786-0
MDA-MB-435 = test system: MDA-MB-435
SN12C = test system: SN12C
SK-MEL-5 = test system: SK-MEL-5
Malme-3M = test system: Malme-3M
NCI-H23 = test system: NCI-H23
IGROV-1 = test system: IGROV-1
LOX IMVI = test system: LOX IMVI
M14 = test system: M14
A549 = test system: A549
T47D = test system: T47D
SNB-19 = test system: SNB-19
OVCAR-8 = test system: OVCAR-8
SK-OV-3 = test system: SK-OV-3
A498 = test system: A498
COLO 205 = test system: COLO 205
U-251 = test system: U-251
MOLT-4 = test system: MOLT-4
UACC-62 = test system: UACC-62
RXF 393 = test system: RXF 393
HOP-92 = test system: HOP-92
HCT-15 = test system: HCT-15
SK-MEL-28 = test system: SK-MEL-28
SF-295 = test system: SF-295
MCF7 = test system: MCF7
BT-549 = test system: BT-549
KM12 = test system: KM12
HL-60 = test system: HL-60
ACHN = test system: ACHN
TK-10 = test system: TK-10
NCI-H522 = test system: NCI-H522
SK-MEL-2 = test system: SK-MEL-2

How did the GI50 (NCI-H226) turn out when `Cc1cnccc1/N=N/c1ccc(N(C)C)cc1` was run?
The GI50 was 4.82 µM (inactive).

And the GI50 (UACC-257)?
The GI50 was 22.3 µM (inactive).

What about the GI50 (MDA-MB-231) of the same compound?
The GI50 was 16.3 µM (inactive).

What about the GI50 (SF-539) of the same compound?
Its GI50 is 19.6 µM (inactive).

What about the GI50 (SW-620) of the same compound?
The GI50 was 22.4 µM (inactive).

And the GI50 (EKVX)?
Its GI50 is 9.55 µM (inactive).

And the GI50 (HOP-62)?
The GI50 was 56.5 µM (inactive).

What about the GI50 (HT-29) of the same compound?
Its GI50 is 23.1 µM (inactive).

What about the GI50 (HCC 2998) of the same compound?
The GI50 was 13.5 µM (inactive).

And the GI50 (K562)?
Its GI50 is 18.6 µM (inactive).

What about the GI50 (OVCAR-3) of the same compound?
Its GI50 is 19.6 µM (inactive).

What about the GI50 (RPMI-8226) of the same compound?
The GI50 was 18.5 µM (inactive).

And the GI50 (UO-31)?
Its GI50 is 18.1 µM (inactive).

And the GI50 (DU-145)?
The GI50 was 66.8 µM (inactive).

What about the GI50 (MDA-N) of the same compound?
Its GI50 is 8.32 µM (inactive).

What about the GI50 (HCT-116) of the same compound?
The GI50 was 22.9 µM (inactive).

And the GI50 (SNB-75)?
The GI50 was 14.5 µM (inactive).

And the GI50 (NCI-H460)?
Its GI50 is 25.7 µM (inactive).

What about the GI50 (CCRF-CEM) of the same compound?
The GI50 was 37 µM (inactive).

And the GI50 (SF-268)?
The GI50 was 16.8 µM (inactive).

And the GI50 (OVCAR-5)?
Its GI50 is 28 µM (inactive).

And the GI50 (CAKI-1)?
Its GI50 is 25.9 µM (inactive).

And the GI50 (Hs-578T)?
Its GI50 is 29.9 µM (inactive).

What about the GI50 (NCI/ADR-RES) of the same compound?
The GI50 was 13 µM (inactive).

What about the GI50 (OVCAR-4) of the same compound?
The GI50 was 16.9 µM (inactive).

And the GI50 (PC-3)?
The GI50 was 26.6 µM (inactive).

And the GI50 (786-0)?
Its GI50 is 42.2 µM (inactive).

And the GI50 (MDA-MB-435)?
Its GI50 is 7.6 µM (inactive).

What about the GI50 (SN12C) of the same compound?
Its GI50 is 21.9 µM (inactive).

And the GI50 (SK-MEL-5)?
The GI50 was 15 µM (inactive).

And the GI50 (Malme-3M)?
The GI50 was 35.7 µM (inactive).

What about the GI50 (NCI-H23) of the same compound?
Its GI50 is 24.4 µM (inactive).

What about the GI50 (IGROV-1) of the same compound?
The GI50 was 7.8 µM (inactive).

What about the GI50 (LOX IMVI) of the same compound?
Its GI50 is 17.4 µM (inactive).

And the GI50 (M14)?
Its GI50 is 41.5 µM (inactive).

What about the GI50 (A549) of the same compound?
The GI50 was 30.7 µM (inactive).

And the GI50 (T47D)?
Its GI50 is 48.6 µM (inactive).

And the GI50 (SNB-19)?
The GI50 was 40 µM (inactive).

What about the GI50 (OVCAR-8) of the same compound?
The GI50 was 22.1 µM (inactive).

What about the GI50 (SK-OV-3) of the same compound?
The GI50 was 16.7 µM (inactive).

And the GI50 (A498)?
The GI50 was 28.3 µM (inactive).

What about the GI50 (COLO 205) of the same compound?
The GI50 was 11.9 µM (inactive).

What about the GI50 (U-251) of the same compound?
The GI50 was 21.3 µM (inactive).

What about the GI50 (MOLT-4) of the same compound?
Its GI50 is 31.3 µM (inactive).

And the GI50 (UACC-62)?
The GI50 was 13.8 µM (inactive).

What about the GI50 (RXF 393) of the same compound?
Its GI50 is 14.9 µM (inactive).

And the GI50 (HOP-92)?
Its GI50 is 9.38 µM (inactive).

What about the GI50 (HCT-15) of the same compound?
The GI50 was 15.1 µM.

And the GI50 (SK-MEL-28)?
The GI50 was 22.3 µM (inactive).

What about the GI50 (SF-295) of the same compound?
The GI50 was 21.4 µM (inactive).

And the GI50 (MCF7)?
Its GI50 is 14.4 µM (inactive).

What about the GI50 (BT-549) of the same compound?
The GI50 was 15.9 µM (inactive).

What about the GI50 (KM12) of the same compound?
The GI50 was 20.3 µM (inactive).

And the GI50 (HL-60)?
Its GI50 is 47.5 µM (inactive).

And the GI50 (ACHN)?
The GI50 was 20.5 µM (inactive).

And the GI50 (TK-10)?
The GI50 was 17.2 µM (inactive).

Which GI50 (NCI-H226) does the source give for `Nc1ncnc2nc(N3CCN(CCO)CC3)[nH]c12` here?
The GI50 was > 100 µM (inactive).

What about the GI50 (UACC-257) of the same compound?
The GI50 was > 100 µM (inactive).

And the GI50 (MDA-MB-231)?
Its GI50 is > 100 µM (inactive).

What about the GI50 (SF-539) of the same compound?
The GI50 was > 100 µM (inactive).

What about the GI50 (SW-620) of the same compound?
The GI50 was > 100 µM (inactive).

And the GI50 (EKVX)?
Its GI50 is > 100 µM (inactive).

What about the GI50 (HOP-62) of the same compound?
The GI50 was > 100 µM (inactive).

And the GI50 (HT-29)?
The GI50 was > 100 µM (inactive).

And the GI50 (HCC 2998)?
Its GI50 is > 100 µM (inactive).

And the GI50 (K562)?
The GI50 was > 100 µM (inactive).

What about the GI50 (OVCAR-3) of the same compound?
Its GI50 is > 100 µM (inactive).

What about the GI50 (RPMI-8226) of the same compound?
Its GI50 is > 100 µM (inactive).

What about the GI50 (UO-31) of the same compound?
Its GI50 is > 100 µM (inactive).

And the GI50 (DU-145)?
Its GI50 is > 100 µM (inactive).

What about the GI50 (MDA-N) of the same compound?
Its GI50 is > 100 µM (inactive).

What about the GI50 (HCT-116) of the same compound?
Its GI50 is > 100 µM (inactive).

What about the GI50 (NCI-H460) of the same compound?
The GI50 was > 100 µM (inactive).

What about the GI50 (CCRF-CEM) of the same compound?
The GI50 was > 100 µM (inactive).

And the GI50 (SF-268)?
Its GI50 is > 100 µM (inactive).

What about the GI50 (OVCAR-5) of the same compound?
The GI50 was > 100 µM (inactive).

And the GI50 (CAKI-1)?
Its GI50 is > 100 µM (inactive).

And the GI50 (Hs-578T)?
The GI50 was > 100 µM (inactive).

And the GI50 (NCI/ADR-RES)?
Its GI50 is > 100 µM (inactive).

What about the GI50 (OVCAR-4) of the same compound?
The GI50 was > 100 µM (inactive).

And the GI50 (PC-3)?
Its GI50 is > 100 µM (inactive).

And the GI50 (786-0)?
The GI50 was > 100 µM (inactive).

And the GI50 (MDA-MB-435)?
The GI50 was > 100 µM (inactive).

What about the GI50 (SN12C) of the same compound?
The GI50 was > 100 µM (inactive).

What about the GI50 (SK-MEL-5) of the same compound?
The GI50 was > 100 µM (inactive).

And the GI50 (Malme-3M)?
Its GI50 is > 100 µM (inactive).

What about the GI50 (NCI-H23) of the same compound?
Its GI50 is > 100 µM (inactive).

What about the GI50 (IGROV-1) of the same compound?
The GI50 was > 100 µM (inactive).

And the GI50 (LOX IMVI)?
The GI50 was > 100 µM (inactive).

And the GI50 (M14)?
The GI50 was > 100 µM (inactive).

What about the GI50 (A549) of the same compound?
The GI50 was > 100 µM (inactive).

And the GI50 (T47D)?
Its GI50 is > 100 µM (inactive).

What about the GI50 (SNB-19) of the same compound?
The GI50 was > 100 µM (inactive).

And the GI50 (NCI-H522)?
The GI50 was > 100 µM (inactive).

What about the GI50 (OVCAR-8) of the same compound?
The GI50 was > 100 µM (inactive).

And the GI50 (SK-OV-3)?
Its GI50 is > 100 µM (inactive).

And the GI50 (A498)?
The GI50 was > 100 µM (inactive).

What about the GI50 (COLO 205) of the same compound?
Its GI50 is > 100 µM (inactive).

What about the GI50 (U-251) of the same compound?
The GI50 was > 100 µM (inactive).

What about the GI50 (MOLT-4) of the same compound?
Its GI50 is 50.6 µM (inactive).

What about the GI50 (SK-MEL-2) of the same compound?
The GI50 was > 100 µM (inactive).

What about the GI50 (UACC-62) of the same compound?
The GI50 was > 100 µM (inactive).

And the GI50 (RXF 393)?
The GI50 was > 100 µM (inactive).

And the GI50 (HCT-15)?
Its GI50 is > 100 µM.

What about the GI50 (SK-MEL-28) of the same compound?
Its GI50 is > 100 µM (inactive).

And the GI50 (SF-295)?
The GI50 was > 100 µM (inactive).

What about the GI50 (MCF7) of the same compound?
Its GI50 is > 100 µM (inactive).

And the GI50 (BT-549)?
Its GI50 is > 100 µM (inactive).

And the GI50 (KM12)?
Its GI50 is > 100 µM (inactive).

And the GI50 (HL-60)?
Its GI50 is > 100 µM (inactive).

And the GI50 (ACHN)?
The GI50 was > 100 µM (inactive).

What about the GI50 (TK-10) of the same compound?
The GI50 was > 100 µM (inactive).
